Measured values taken from patent US20250163061A1 (Bala Therapeutics, Inc., priority 2021, published 2025).

What was measured:
Type in all cases: cell-based
MV4-11 = MV4-11 cellular growth inhibition assay (CellTiter-Glo); settings: Homo sapiens, 168 h, MV4-11 cells, 7 days of incubation
Protocol: (§1) HEK293 (Institute of Cytology Russian Academy of Science), MV4-11 (ATCC, CRL-9591), MOLM-13 (AcceGen, ABC-TC517S) were seeded at a density of 500 cells per well (HEK293) and 2000 cells per well (MV4-11, MOLM-13) in a 384-well clear bottom plate (Greiner Cat #781090) in 45 μl total volume of DMEM (PanEco, Cat #C420, Russia) or RPMI (PanEco, Cat #C330, Russia) with 10% FBS (HyClone Cat #SV30160.03). HEK293 were allowed to adhere overnight at 37° C., 5% CO2. 500× compounds solutions in DMSO (Sigma Cat #D2650) were prepared into Cmpnds plate (Diamond Well Plate, Axigen, Cat #P-384-120SQ-C-S) and DMSO only control was included. 1 μl of 500× compounds (Cmpnds plate) was added to 49 μl of culture medium into Dilution plate (Diamond Well Plate, Axigen, Cat #P-384-120SQ-C-S), mixed and then 5 μl of 10× compounds solutions were transferred to cells followed by centrifugation at 100 g for 1 min. Final DMSO concentration was 0.2%. After 3 days of incubation, 10 μl of 1× compounds were added to cells. After 7 days of incubation, 12 μl of CellTiter-Glo (Promega, CAT #G7572) were added to the cells, plate was centrifuged at 100 g for 1 min and luminescence signal was measured using Microplate Reader (CLARIOStar).

MOLM-13 = MOLM-13 cellular growth inhibition assay (CellTiter-Glo); settings: Homo sapiens, 168 h, MOLM-13 cells, 7 days of incubation
Protocol: as §1

[1] = HEK293 cellular growth inhibition assay (CellTiter-Glo); settings: human, HEK293 cells, 7 days of incubation
Protocol: as §1

For `Cc1c(CN2CCC3(CC2)CN(c2ncnc4ccc(CC(F)(F)F)cc24)C3)ccc2c1cc(C#N)n2CC1CNC(=O)CO1` (centres unmarked) [Compound 82, 4-Methyl-1-[(5-oxomorpholin-2-yl)methyl]-5-({2-[6-(2,2,2-trifluoroethyl)quinazolin-4-yl]-2,7-diazaspiro[3.5]non-7-yl}methyl)-1H-indole-2-carbonitrile], the CC50 (MV4-11) was ≤ 100 nM, the CC50 (MOLM-13) was 100 to 500 nM and the CC50 at 7 days [1] was 2 to 5 µM.
With `C=CC(=O)N1CCN(CCCn2c(C#N)cc3c(C)c(CN4CCC5(CC4)CN(c4ncnc6ccc(CC(F)(F)F)cc46)C5)ccc32)CC1` [Compound 66, 4-methyl-1-[3-(4-prop-2-enoylpiperazin-1-yl)propyl]-5-[[2-[6-(2,2,2-trifluoroethyl)quinazolin-4-yl]-2,7-diazaspiro[3.5]nonan-7-yl]methyl]indole-2-carbonitrile] the CC50 (MV4-11) was 100 to 500 nM, the CC50 (MOLM-13) was 100 to 500 nM and the CC50 at 7 days [1] was 2 to 5 µM.
`CS(=O)(=O)N1CCN(CCn2c(C#N)cc3cc(CN4CCC5(CC4)CN(c4ncnc6ccc(CC(F)(F)F)cc46)C5)ccc32)CC1` [Compound 91, 1-{2-[4-(Methylsulfonyl)piperazin-1-yl]ethyl}-5-({2-[6-(2,2,2-trifluoroethyl)quinazolin-4-yl]-2,7-diazaspiro[3.5]non-7-yl}methyl)-1H-indole-2-carbonitrile] showed a CC50 (MV4-11) of 500 to 1000 nM, a CC50 (MOLM-13) of 1000 to 5000 nM and a CC50 at 7 days [1] of 5 to 10 µM.
`Cc1c(CN2CCC3(CC2)CN(c2ncnc4cnc(CC(F)(F)F)cc24)C3)ccc2c1cc(C#N)n2CC(C)N1CCN(S(C)(=O)=O)CC1` (centres unmarked) [Compound 45, 4-Methyl-1-{2-[4-(methylsulfonyl)piperazin-1-yl]propyl}-5-({2-[6-(2,2,2-trifluoroethyl)pyrido[3,4-d]pyrimidin-4-yl]-2,7-diazaspiro[3.5]non-7-yl}methyl)-1H-indole-2-carbonitrile] gave a CC50 (MV4-11) of 100 to 500 nM, a CC50 (MOLM-13) of 1000 to 5000 nM and a CC50 at 7 days [1] of 5 to 10 µM.
With `Cc1c(CN2CCC3(CC2)CN(c2ncnc4ccc(CC(F)(F)F)cc24)C3)ccc2c1cc(C#N)n2C[C@@H]1CNC(=O)CO1` [Compound 102, 4-Methyl-1-{[(2S)-5-oxomorpholin-2-yl]methyl}-5-({2-[6-(2,2,2-trifluoroethyl)quinazolin-4-yl]-2,7-diazaspiro[3.5]non-7-yl}methyl)-1H-indole-2-carbonitrile] the CC50 (MV4-11) was ≤ 100 nM, the CC50 (MOLM-13) was 100 to 500 nM and the CC50 at 7 days [1] was ≤ 2 µM.
For `Cc1c(CN2CCC3(CC2)CN(c2ncnc4ccc(CC(F)(F)F)cc24)C3)ccc2c1cc(C#N)n2CC12CC(NC=O)(C1)C2` [Compound 95, (3-{[2-Cyano-4-methyl-5-({2-[6-(2,2,2-trifluoroethyl)quinazolin-4-yl]-2,7-diazaspiro[3.5]non-7-yl}methyl)-1H-indol-1-yl]methyl}bicyclo[1.1.1]pent-1-yl)formamide], the CC50 (MV4-11) was ≤ 100 nM, the CC50 (MOLM-13) was 100 to 500 nM and the CC50 at 7 days [1] was 2 to 5 µM.
For `Cc1c(CN2CCC3(CC2)CN(c2ncnc4ccc(CC(F)(F)F)cc24)C3)ccc2c1cc(C#N)n2C[C@H]1CC[C@H](NS(C)(=O)=O)CC1` [Compound 40, N-(trans-4-{[2-Cyano-4-methyl-5-({2-[6-(2,2,2-trifluoroethyl)quinazolin-4-yl]-2,7-diazaspiro[3.5]non-7-yl}methyl)-1H-indol-1-yl]methyl}cyclohexyl)methanesulfonamide], the CC50 (MV4-11) was 100 to 500 nM, the CC50 (MOLM-13) was 1000 to 5000 nM and the CC50 at 7 days [1] was 10 to 20 µM.
For `Cc1c(CN2CCC3(CC2)CN(c2ncnc4ccc(CC(F)(F)F)cc24)C3)ccc2c1cc(C#N)n2CC1CCC(=O)NC1` (centres unmarked) [Compound 72, 4-Methyl-1-[(6-oxopiperidin-3-yl)methyl]-5-({2-[6-(2,2,2-trifluoroethyl)quinazolin-4-yl]-2,7-diazaspiro[3.5]non-7-yl}methyl)-1H-indole-2-carbonitrile], the CC50 (MV4-11) was 100 to 500 nM, the CC50 (MOLM-13) was 500 to 1000 nM and the CC50 at 7 days [1] was ≤ 2 µM.
In the case of `Cc1c(CN2CCC3(CC2)CN(c2ncnc4ccc(CC(F)(F)F)cc24)C3)ccc2c1cc(C#N)n2CC1CCNC(=O)CC1` (centres unmarked) [Compound 5, 4-Methyl-1-[(7-oxoazepan-4-yl)methyl]-5-[[2-[6-(2,2,2-trifluoroethyl)quinazolin-4-yl]-2,7-diazaspiro[3.5]nonan-7-yl]methyl]indole-2-carbonitrile], the CC50 (MV4-11) is reported as 100 to 500 nM, the CC50 (MOLM-13) is reported as 500 to 1000 nM and the CC50 at 7 days [1] is reported as ≤ 2 µM.
In the case of `Cc1c(CN2CCC3(CC2)CN(c2ncnc4ncc(CC(F)(F)F)nc24)C3)ccc2c1cc(C#N)n2CC(C)N1CCN(S(C)(=O)=O)CC1` (centres unmarked) [Compound 42, 4-Methyl-1-[2-(4-methylsulfonylpiperazin-1-yl)propyl]-5-[[2-[6-(2,2,2-trifluoroethyl)pteridin-4-yl]-2,7-diazaspiro[3.5]nonan-7-yl]methyl]indole-2-carbonitrile], the CC50 (MV4-11) is reported as 100 to 500 nM, the CC50 (MOLM-13) is reported as 100 to 500 nM and the CC50 at 7 days [1] is reported as ≤ 2 µM.
Work on `Cc1c(CN2CCC3(CC2)CN(c2ncnc4ccc(CC(F)(F)F)cc24)C3)ccc2c1cc(C#N)n2CC1CCNC(=O)C1` (centres unmarked) [Compound 22, 4-Methyl-1-[(2-oxopiperidin-4-yl)methyl]-5-({2-[6-(2,2,2-trifluoroethyl)quinazolin-4-yl]-2,7-diazaspiro[3.5]non-7-yl}methyl)-1H-indole-2-carbonitrile] yielded a CC50 (MV4-11) of 100 to 500 nM, a CC50 (MOLM-13) of 500 to 1000 nM and a CC50 at 7 days [1] of 2 to 5 µM.
In the case of `Cc1c(CN2CCC3(CC2)CN(c2ncnc4ccc(CC(F)(F)F)cc24)C3)ccc2c1cc(C#N)n2Cc1ccc(=O)[nH]c1` [Compound 14, 4-Methyl-1-[(6-oxo-1,6-dihydropyridin-3-yl)methyl]-5-({2-[6-(2,2,2-trifluoroethyl)quinazolin-4-yl]-2,7-diazaspiro[3.5]non-7-yl}methyl)-1H-indole-2-carbonitrile], the CC50 (MV4-11) is reported as ≤ 100 nM, the CC50 (MOLM-13) is reported as ≤ 100 nM and the CC50 at 7 days [1] is reported as ≤ 2 µM.
In the case of `Cc1c(CN2CCC3(CC2)CN(c2ncnc4ccc(CC(F)(F)F)cc24)C3)ccc2c1cc(C#N)n2C(C)CCN1CCN(S(C)(=O)=O)CC1` (centres unmarked) [Compound 13, 4-Methyl-1-{1-methyl-3-[4-(methylsulfonyl)piperazin-1-yl]propyl}-5-({2-[6-(2,2,2-trifluoroethyl)quinazolin-4-yl]-2,7-diazaspiro[3.5]non-7-yl}methyl)-1H-indole-2-carbonitrile], the CC50 (MV4-11) is reported as ≤ 100 nM, the CC50 (MOLM-13) is reported as 500 to 1000 nM and the CC50 at 7 days [1] is reported as 5 to 10 µM.
With `CCCCS(=O)(=O)N1CCCN(C(C)Cn2c(C#N)cc3c(C)c(CN4CCC5(CC4)CN(c4ncnc6ccc(CC(F)(F)F)cc46)C5)ccc32)CC1` (centres unmarked) [Compound 73, 1-{2-[4-(Butylsulfonyl)-1,4-diazepan-1-yl]propyl}-4-methyl-5-({2-[6-(2,2,2-trifluoroethyl)quinazolin-4-yl]-2,7-diazaspiro[3.5]non-7-yl}methyl)-1H-indole-2-carbonitrile] the CC50 (MV4-11) was ≤ 100 nM, the CC50 (MOLM-13) was 500 to 1000 nM and the CC50 at 7 days [1] was > 20 µM.
In the case of `Cc1c(CN2CCC3(CC2)CN(c2ncnc4ccc(CC(F)(F)F)cc24)C3)ccc2[nH]c(C#N)cc12` [Compound 68, 4-Methyl-5-({2-[6-(2,2,2-trifluoroethyl)quinazolin-4-yl]-2,7-diazaspiro[3.5]non-7-yl}methyl)-1H-indole-2-carbonitrile], the CC50 (MV4-11) is reported as 100 to 500 nM, the CC50 (MOLM-13) is reported as 500 to 1000 nM and the CC50 at 7 days [1] is reported as 2 to 5 µM.
With `Cc1c(CN2CCC3(CC2)CN(c2ncnc4ncc(CC(F)(F)F)cc24)C3)ccc2c1cc(C#N)n2CC(C)N1CCN(S(C)(=O)=O)CC1` (centres unmarked) [Compound 89, 4-Methyl-1-{2-[4-(methylsulfonyl)piperazin-1-yl]propyl}-5-({2-[6-(2,2,2-trifluoroethyl)pyrido[2,3-d]pyrimidin-4-yl]-2,7-diazaspiro[3.5]non-7-yl}methyl)-1H-indole-2-carbonitrile] the CC50 (MV4-11) was ≤ 100 nM, the CC50 (MOLM-13) was 500 to 1000 nM and the CC50 at 7 days [1] was ≤ 2 µM.
In the case of `N#Cc1cc2cc(CN3CCC4(CC3)CN(c3ncnc5ccc(CC(F)(F)F)cc35)C4)ccc2[nH]1` [Compound 98], the CC50 (MV4-11) is reported as 500 to 1000 nM, the CC50 (MOLM-13) is reported as 1000 to 5000 nM and the CC50 at 7 days [1] is reported as 5 to 10 µM.
With `Cc1c(CN2CCC3(CC2)CN(c2ncnc4ccc(CC(F)(F)F)cc24)C3)ccc2c1cc(C#N)n2CC1CNC(=O)C1` (centres unmarked) [Compound 51, 4-Methyl-1-[(5-oxopyrrolidin-3-yl)methyl]-5-({2-[6-(2,2,2-trifluoroethyl)quinazolin-4-yl]-2,7-diazaspiro[3.5]non-7-yl}methyl)-1H-indole-2-carbonitrile] the CC50 (MV4-11) was 100 to 500 nM, the CC50 (MOLM-13) was 1000 to 5000 nM and the CC50 at 7 days [1] was 2 to 5 µM.
With `Cc1c(CN2CCC3(CC2)CN(c2ncnc4ccc(CC(F)(F)F)cc24)C3)ccc2c1cc(C#N)n2C[C@@H](C)N1CCN(S(C)(=O)=O)[C@@H](C)C1` [Compound 27, 4-methyl-1-[(2R)-2-[(3S)-3-methyl-4-methylsulfonyl-piperazin-1-yl]propyl]-5-[[2-[6-(2,2,2-trifluoroethyl)quinazolin-4-yl]-2,7-diazaspiro[3.5]nonan-7-yl]methyl]indole-2-carbonitrile] the CC50 (MV4-11) was ≤ 100 nM, the CC50 (MOLM-13) was 100 to 500 nM and the CC50 at 7 days [1] was 5 to 10 µM.
For `Cc1c(CN2CCC3(CC2)CN(c2ncnc4ccc(CC(F)(F)F)cc24)C3)ccc2c1cc(C#N)n2CC1CNC(=O)NC1` [Compound 4, 4-Methyl-1-[(2-oxohexahydropyrimidin-5-yl)methyl]-5-[[2-[6-(2,2,2-trifluoroethyl)quinazolin-4-yl]-2,7-diazaspiro[3.5]nonan-7-yl]methyl]indole-2-carbonitrile], the CC50 (MV4-11) was 100 to 500 nM and the CC50 (MOLM-13) was 500 to 1000 nM.
